From US10112950B2, “Substituted imidazo[1,2-a]pyrazines as LSD1 inhibitors” (Incyte Corporation, priority 2014, dated 2018)
pIC50: −log10 of the molar value.

What follows are compounds tested against LSD-1 enzyme (Homo sapiens (Human), UniProt O60341) (assay: LANCE LSD1/KDM1A demethylase assay (LSD1 histone demethylase biochemical assay)). Conditions: 1 nM LSD-1 enzyme, 1 hour preincubation at 25° C., 0.4 μM Biotin-labeled Histone H3 peptide substrate.
Experimental: LSD1 Histone Demethylase Biochemical Assay
LANCE LSD1/KDM1A demethylase assay-10 μL of 1 nM LSD-1 enzyme (ENZO BML-SE544-0050) in the assay buffer (50 mM Tris, pH 7.5, 0.01% Tween-20, 25 mM NaCl, 5 mM DTT) were preincubated for 1 hour at 25° C. with 0.8 μL compound/DMSO dotted in black 384 well polystyrene plates. […] Reactions were stopped by addition of 10 μL 1× LANCE Detection Buffer (PerkinElmer CR97-100) supplemented with 1.5 nM Eu-anti-unmodified H3K4 Antibody (PerkinElmer TRF0404), and 225 nM LANCE Ultra Streptavidin (PerkinElmer TRF102) along with 0.9 mM Tranylcypromine-HCl (Millipore 616431). After stopping the reactions plates were incubated for 30 minutes and read on a PHERAstar FS plate reader (BMG Labtech).
`Cc1ccc(-c2c(-c3ccc(C#N)cc3)nc(OC[C@@H]3CCCN(C)C3)c3nccn23)cc1CO` [Example 70, 4-(5-[3-(hydroxymethyl)-4-methylphenyl]-8-{[(3R)-1-methylpiperidin-3-yl]methoxy}imidazo[1,2-a]pyrazin-6-yl)benzonitrile] gave a pIC50 of no less than 7.30.
With `Cc1cc(-c2c(-c3ccc(C#N)cc3)nc(OC[C@@H]3CCCN(C)C3)c3nccn23)ccc1CO` [Example 72, 4-(5-[4-(hydroxymethyl)-3-methylphenyl]-8-{[(3R)-1-methylpiperidin-3-yl]methoxy}imidazo[1,2-a]pyrazin-6-yl)benzonitrile] the pIC50 was no less than 7.30.
Work on `CN1CCC[C@@H](COc2nc(-c3ccc(C#N)cc3)c(-c3ccc4c(c3)C(O)CC4)n3ccnc23)C1` (stereo partly drawn) [Example 73, 4-(5-(3-hydroxy-2,3-dihydro-1H-1-inden-5-yl)-8-{[(3R)-1-methylpiperidin-3-yl]methoxy}imidazo[1,2-a]pyrazin-6-yl)benzonitrile] yielded a pIC50 of no less than 7.30.
Compound `CN1CCC[C@@H](COc2nc(-c3ccc(C#N)cc3)c(-c3cc(F)c4c(c3)C(O)CC4)n3ccnc23)C1` (stereo partly drawn) [Example 79, 4-(5-(7-fluoro-3-hydroxy-2,3-dihydro-1H-inden-5-yl)-8-{[(3R)-1-methylpiperidin-3-yl]methoxy}imidazo[1,2-a]pyrazin-6-yl)benzonitrile] has a pIC50 of no less than 7.30.
`CN1CCC[C@@H](COc2nc(-c3ccc(C#N)cc3)c(-c3ccc4c(c3)CCC4O)n3ccnc23)C1` (stereo partly drawn) [Example 80, 4-(5-(1-hydroxy-2,3-dihydro-1H-inden-5-yl)-8-{[(3R)-1-methylpiperidin-3-yl]methoxy}imidazo[1,2-a]pyrazin-6-yl)benzonitrile] was tested, and the pIC50 was no less than 7.30.
`Cc1cc(-c2c(-c3ccc(C#N)cc3)nc(OC[C@@H]3CCCN(C)C3)c3nccn23)cc(F)c1CO` [Example 81, 4-(5-[3-fluoro-4-(hydroxymethyl)-5-methylphenyl]-8-{[(3R)-1-methylpiperidin-3-yl]methoxy}imidazo[1,2-a]pyrazin-6-yl)benzonitrile] gave a pIC50 of no less than 7.30.
For `COC(=O)N(C)Cc1ccc(-c2c(-c3ccc(C#N)cc3)nc(OC[C@@H]3CCCN(C)C3)c3nccn23)cc1F` [Example 85, methyl [4-(6-(4-cyanophenyl)-8-{[(3R)-1-methylpiperidin-3-yl]methoxy}imidazo[1,2-a]pyrazin-5-yl)-2-fluorobenzyl]methylcarbamate], the pIC50 was no less than 7.30.
`Cc1ccc(-c2c(-c3ccc(C#N)cc3)nc(OC[C@@H]3CCCN(C)C3)c3nccn23)cc1C(C)O` (stereo partly drawn) [Example 87, 4-(5-[3-(1-hydroxyethyl)-4-methylphenyl]-8-{[(3R)-1-methylpiperidin-3-yl]methoxy}imidazo[1,2-a]pyrazin-6-yl)benzonitrile] gave a pIC50 of no less than 7.30.
For `CN1CCC[C@@H](COc2nc(-c3ccc(C#N)cc3)c(-c3cc(F)c4c(c3)CCC4O)n3ccnc23)C1` (stereo partly drawn) [Example 88, 4-(5-(7-fluoro-1-hydroxy-2,3-dihydro-1H-inden-5-yl)-8-{[(3R)-1-methylpiperidin-3-yl]methoxy}imidazo[1,2-a]pyrazin-6-yl)benzonitrile], the pIC50 was no less than 7.30.
`Cc1ccc(-c2c(-c3ccc(C#N)cc3)nc(OC[C@@H]3CCCN(C)C3)c3nccn23)c(CO)c1` [Example 90, 4-(5-[2-(hydroxymethyl)-4-methylphenyl]-8-{[(3R)-1-methylpiperidin-3-yl]methoxy}imidazo[1,2-a]pyrazin-6-yl)benzonitrile] was tested, and the pIC50 was no less than 7.30.
`Cc1ccc(-c2c(-c3ccc(C#N)cc3)nc(OC[C@@H]3CCCN(C)C3)c3nccn23)cc1CC#N` [Example 91, 4-(5-[3-(cyanomethyl)-4-methylphenyl]-8-{[(3R)-1-methylpiperidin-3-yl]methoxy}imidazo[1,2-a]pyrazin-6-yl)benzonitrile] gave a pIC50 of no less than 7.30.
`Cc1cc(-c2c(-c3ccc(C#N)cc3)nc(N3CCC(N(C)C)CC3)c3nccn23)cnc1C` [Example 92, 4-[8-[4-(dimethylamino)piperidin-1-yl]-5-(5,6-dimethylpyridin-3-yl)imidazo[1,2-a]pyrazin-6-yl]benzonitrile] gave a pIC50 of no less than 7.30.
`Cc1ncc(-c2c(-c3ccc(C#N)cc3)nc(N3CCC(N(C)C)CC3)c3nccn23)cc1O` [Example 94, 4-[8-[4-(dimethylamino)piperidin-1-yl]-5-(5-hydroxy-6-methylpyridin-3-yl)imidazo[1,2-a]pyrazin-6-yl]benzonitrile] showed a pIC50 of no less than 7.30.
`Cc1ccc(-c2c(-c3ccc(C#N)cc3)nc(N3CCC(N(C)C)CC3)c3nccn23)cc1CO` [Example 96, 4-{8-[4-(dimethylamino)piperidin-1-yl]-5-[3-(hydroxymethyl)-4-methylphenyl]imidazo[1,2-a]pyrazin-6-yl}benzonitrile] showed a pIC50 of no less than 7.30.
`Cc1cc(-c2c(-c3ccc(C#N)cc3)nc(N3CCC(N(C)C)CC3)c3nccn23)cc(F)c1CO` [Example 97, 4-{8-[4-(dimethylamino)piperidin-1-yl]-5-[3-fluoro-4-(hydroxymethyl)-5-methylphenyl]imidazo[1,2-a]pyrazin-6-yl}benzonitrile] gave a pIC50 of no less than 7.30.
Compound `CN1C(=O)Cc2cc(-c3c(-c4ccc(C#N)cc4)nc(N4CCC(N(C)C)CC4)c4nccn34)ccc21` [Example 98, 4-[8-[4-(dimethylamino)piperidin-1-yl]-5-(1-methyl-2-oxo-2,3-dihydro-1H-indol-5-yl)imidazo[1,2-a]pyrazin-6-yl]benzonitrile] has a pIC50 of no less than 7.30.
`CN(C)C1CCCN(c2nc(-c3ccc(C#N)cc3)c(-c3ccc(N4CCCC4=O)nc3)n3ccnc23)C1` (stereo not shown) [Example 99, 4-{8-[3-(dimethylamino)piperidin-1-yl]-5-[6-(2-oxopyrrolidin-1-yl)pyridin-3-yl]imidazo[1,2-a]pyrazin-6-yl}benzonitrile] gave a pIC50 of no less than 7.30.
With `CN1CCN(c2ccc(-c3c(-c4ccc(C#N)cc4)nc(N4CCC(N(C)C)CC4)c4nccn34)cn2)C1=O` [Example 100, 4-{8-[4-(dimethylamino)piperidin-1-yl]-5-[6-(3-methyl-2-oxoimidazolidin-1-yl)pyridin-3-yl]imidazo[1,2-a]pyrazin-6-yl}benzonitrile] the pIC50 was no less than 7.30.
Work on `CN(C)C1CCN(c2nc(-c3ccc(C#N)cc3)c(-c3ccc4nccnc4c3)n3ccnc23)CC1` [Example 101, 4-{8-[4-(dimethylamino)piperidin-1-yl]-5-quinoxalin-6-ylimidazo[1,2-a]pyrazin-6-yl}benzonitrile] yielded a pIC50 of no less than 7.30.
With `CN1C(=O)CCc2cc(-c3c(-c4ccc(C#N)cc4)nc(N4CCC(N(C)C)CC4)c4nccn34)ccc21` [Example 102, 4-[8-[4-(dimethylamino)piperidin-1-yl]-5-(1-methyl-2-oxo-1,2,3,4-tetrahydroquinolin-6-yl)imidazo[1,2-a]pyrazin-6-yl]benzonitrile] the pIC50 was no less than 7.30.
For `CN(C)C1CCN(c2nc(-c3ccc(C#N)cc3)c(-c3cnc4c(c3)cc(CO)n4C)n3ccnc23)CC1` [Example 103, 4-{8-[4-(dimethylamino)piperidin-1-yl]-5-[2-(hydroxymethyl)-1-methyl-1H-pyrrolo[2,3-b]pyridin-5-yl]imidazo[1,2-a]pyrazin-6-yl}benzonitrile], the pIC50 was no less than 7.30.
Compound `CCn1c(=O)oc2cc(-c3c(-c4ccc(C#N)cc4)nc(N4CCC(N(C)C)CC4)c4nccn34)cnc21` [Example 105, 4-[8-[4-(dimethylamino)piperidin-1-yl]-5-(3-ethyl-2-oxo-2,3-dihydro[1,3]oxazolo[4,5-b]pyridin-6-yl)imidazo[1,2-a]pyrazin-6-yl]benzonitrile] has a pIC50 of no less than 7.30.
`CN(C)C1CCN(c2nc(-c3ccc(C#N)cc3)c(-c3ccc4c(c3)ncn4C)n3ccnc23)CC1` [Example 106, 4-[8-[4-(dimethylamino)piperidin-1-yl]-5-(1-methyl-1H-benzimidazol-5-yl)imidazo[1,2-a]pyrazin-6-yl]benzonitrile] was tested, and the pIC50 was no less than 7.30.
`CN1C(=O)COc2cc(-c3c(-c4ccc(C#N)cc4)nc(N4CCC(N(C)C)CC4)c4nccn34)cnc21` [Example 107, 4-[8-[4-(dimethylamino)piperidin-1-yl]-5-(4-methyl-3-oxo-3,4-dihydro-2H-pyrido[3,2-b][1,4]oxazin-7-yl)imidazo[1,2-a]pyrazin-6-yl]benzonitrile] was tested, and the pIC50 was no less than 7.30.
With `CN1CCN(c2ccc(-c3c(-c4ccc(C#N)cc4)nc(N4CCC(N(C)C)CC4)c4nccn34)cn2)CC1=O` [Example 109, 4-{8-[4-(dimethylamino)piperidin-1-yl]-5-[6-(4-methyl-3-oxopiperazin-1-yl)pyridin-3-yl]imidazo[1,2-a]pyrazin-6-yl}benzonitrile] the pIC50 was no less than 7.30.
`CN(C)C1CCN(c2nc(-c3ccc(C#N)cc3)c(-c3ccc4c(c3)c(CO)nn4C)n3ccnc23)CC1` [Example 110, 4-{8-[4-(dimethylamino)piperidin-1-yl]-5-[3-(hydroxymethyl)-1-methyl-1H-indazol-5-yl]imidazo[1,2-a]pyrazin-6-yl}benzonitrile] showed a pIC50 of no less than 7.30.
Work on `CN1C(=O)Cc2cc(-c3c(-c4ccc(C#N)cc4)nc(N4CCC(N(C)C)CC4)c4nccn34)cnc21` [Example 111, 4-[8-[4-(dimethylamino)piperidin-1-yl]-5-(1-methyl-2-oxo-2,3-dihydro-1H-pyrrolo[2,3-b]pyridin-5-yl)imidazo[1,2-a]pyrazin-6-yl]benzonitrile] yielded a pIC50 of no less than 7.30.
Compound `CN(C)C1CCN(c2nc(-c3ccc(C#N)cc3)c(-c3cnc4c(ccn4C)c3)n3ccnc23)CC1` [Example 112, 4-[8-[4-(dimethylamino)piperidin-1-yl]-5-(1-methyl-1H-pyrrolo[2,3-b]pyridin-5-yl)imidazo[1,2-a]pyrazin-6-yl]benzonitrile] has a pIC50 of no less than 7.30.
